What follows are compounds tested against T1, human SK3 channel (hKCa2.3) (Homo sapiens, UniProt Q9UGI6) (assay: Automated whole cell patch-clamp (QPatch 16 HT), inhibition of SK3 current). Conditions: HEK-293 cells stably expressing hKCa2.3; symmetrical K+ solutions, free calcium 400 nM; effects normalized to N-methyl bicuculline.
T1 construct: expressed in transfected cells
Format: cell-based
Outline: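 HEK-293 cells stably expressing hKCa2.3, automated whole-cell patch clamp in symmetrical K+ (400 nM free intracellular Ca2+, pH 7.2; external pH 7.4). Held at 0 mV, ramps −80 to +80 mV (200 ms) every 5 s; increasing compound concentrations, currents run-down corrected and normalized to 100 μM N-methyl bicuculline; IC50 reported.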

Row | IC50 [µM] | Compound
1 | 10 to 100 | CN1CCN(C(=O)C(Nc2nc3ccccc3[nH]2)c2cccc(C(F)(F)F)c2)CC1 (single isomer, unassigned; (-)) [Example 27a, (−)2-[(1H-1,3-benzodiazol-2-yl)amino]-1-(4-methylpiperazin-1-yl)-2-[3-(trifluoromethyl)phenyl]ethan-1-one]
2 | < 10 | CN1CCN(C(=O)C(Nc2nc3ccccc3[nH]2)c2cccc(C(F)(F)F)c2)CC1 (centres unmarked) [Example 27, 2-[(1H-1,3-benzodiazol-2-yl)amino]-1-(4-methylpiperazin-1-yl)-2-[3-(trifluoromethyl)phenyl]ethan-1-one]
3 | 10 to 100 | O=C(CC(Nc1nc2ccccc2[nH]1)c1cccc(C(F)(F)F)c1)N1CCC[C@@H](O)C1 (stereo partly drawn) [Example 13, 3-[(1H-1,3-benzodiazol-2-yl)amino]-1-[(3R)-3-hydroxypiperidin-1-yl]-3-[3-(trifluoromethyl)phenyl]propan-1-one]
4 | 10 to 100 | O=C(CC(Nc1nc2ccccc2[nH]1)c1cccc(C(F)(F)F)c1)N1CCC(O)CC1 (centres unmarked) [Example 5, 3-[(1H-1,3-benzodiazol-2-yl)amino]-1-(4-hydroxypiperidin-1-yl)-3-[3-(trifluoromethyl)phenyl]propan-1-one]
5 | < 10 | CN(CCCO)C(=O)CC(Nc1nc2ccccc2[nH]1)c1cccc(C(F)(F)F)c1 (single isomer, unassigned; (-)) [Example 17a, (−) 3-[(1H-1,3-benzodiazol-2-yl)amino]-N-(3-hydroxypropyl)-N-methyl-3-[3-(trifluoromethyl)phenyl]propanamide]

The remaining lines, values behind:

Row | Compound | IC50 [µM]
6 | O=C(CC(Nc1nc2ccccc2[nH]1)c1cccc(C(F)(F)F)c1)NCc1ncco1 (centres unmarked) [Example 18, 3-[(1H-1,3-benzodiazol-2-yl)amino]-N-[(1,3-oxazol-2-yl)methyl]-3-[3-(trifluoromethyl)phenyl]propanamide] | < 10
7 | COC(=O)[C@@H](C)NC(=O)CC(Nc1nc2ccccc2[nH]1)c1cccc(C(F)(F)F)c1 (stereo partly drawn) [Example 46, Methyl (2R)-2-{3-[(1H-1,3-benzodiazol-2-yl)amino]-3-[3-(trifluoromethyl)phenyl]propanamido}propanoate] | < 10
8 | O=C(C(Nc1nc2ccccc2[nH]1)c1cccc(C(F)(F)F)c1)N1CC2(COC2)C1 (centres unmarked) [Example 36, 2-[(1H-1,3-benzodiazol-2-yl)amino]-1-{2-oxa-6-azaspiro[3.3]heptan-6-yl}-2-[3-(trifluoromethyl)phenyl]ethan-1-one] | 10 to 100
9 | O=C(CC(Nc1nc2ccccc2[nH]1)c1cccc(C(F)(F)F)c1)NCc1cncnc1 (centres unmarked) [Example 78, 3-[(1H-1,3-benzodiazol-2-yl)amino]-N-(pyrimidin-5-ylmethyl)-3-[3-(trifluoromethyl)phenyl]propanamide] | < 10
10 | COCCNC(=O)CC(C)(Nc1nc2cc(F)ccc2[nH]1)c1cccc(C(F)(F)F)c1 (centres unmarked) [Example 91, 3-[(5-fluoro-1H-1,3-benzodiazol-2-yl)amino]-N-(2-methoxyethyl)-3-[3-(trifluoromethyl)phenyl]butanamide] | < 10
11 | O=C(CC(Nc1nc2ccccc2[nH]1)c1cccc(OC(F)(F)F)c1)NCc1nc2ccccc2o1 (centres unmarked) [Example 90, 3-[(1H-1,3-benzodiazol-2-yl)amino]-N-(1,3-benzoxazol-2-ylmethyl)-3-[3-(trifluoromethoxy)phenyl]propanamide] | < 10

Source: patent US11274092B2, “Potassium channel inhibitors” (ACESION PHARMA ApS, priority 2016, dated 2022)
